Experiments:
[1] = biological target: caseinolytic protein C1 (ClpC1) N-terminal domain (NTD) (Mycobacterial (Mycobacterium tuberculosis by context)) (UniProt P9WPC9); test: SPR (Biacore T200), 1:1 Langmuir fit, KD=kd/ka
[2] = biological target: caseinolytic protein C1 (ClpC1) full-length protein (FL) (Mycobacterial (Mycobacterium tuberculosis by context)) (UniProt P9WPC9); test: SPR (Biacore T200), 1:1 Langmuir fit, KD=kd/ka
Mycobacterial ClpC1 FL = biological target: T1, Mycobacterial ClpC1 FL (Mycobacterium tuberculosis, UniProt P9WPC9); test: SPR binding affinity to ClpC1 full-length protein (FL); conditions: SPR, ClpC1 full-length protein; Table 3, unit inferred; read-out: KD FL
T1 construct: N-terminal domain (NTD) and the full-length protein (FL) by surface plasmon resonance (SPR)
T1 sequence (P9WPC9 whole entry, the tested form may be a part): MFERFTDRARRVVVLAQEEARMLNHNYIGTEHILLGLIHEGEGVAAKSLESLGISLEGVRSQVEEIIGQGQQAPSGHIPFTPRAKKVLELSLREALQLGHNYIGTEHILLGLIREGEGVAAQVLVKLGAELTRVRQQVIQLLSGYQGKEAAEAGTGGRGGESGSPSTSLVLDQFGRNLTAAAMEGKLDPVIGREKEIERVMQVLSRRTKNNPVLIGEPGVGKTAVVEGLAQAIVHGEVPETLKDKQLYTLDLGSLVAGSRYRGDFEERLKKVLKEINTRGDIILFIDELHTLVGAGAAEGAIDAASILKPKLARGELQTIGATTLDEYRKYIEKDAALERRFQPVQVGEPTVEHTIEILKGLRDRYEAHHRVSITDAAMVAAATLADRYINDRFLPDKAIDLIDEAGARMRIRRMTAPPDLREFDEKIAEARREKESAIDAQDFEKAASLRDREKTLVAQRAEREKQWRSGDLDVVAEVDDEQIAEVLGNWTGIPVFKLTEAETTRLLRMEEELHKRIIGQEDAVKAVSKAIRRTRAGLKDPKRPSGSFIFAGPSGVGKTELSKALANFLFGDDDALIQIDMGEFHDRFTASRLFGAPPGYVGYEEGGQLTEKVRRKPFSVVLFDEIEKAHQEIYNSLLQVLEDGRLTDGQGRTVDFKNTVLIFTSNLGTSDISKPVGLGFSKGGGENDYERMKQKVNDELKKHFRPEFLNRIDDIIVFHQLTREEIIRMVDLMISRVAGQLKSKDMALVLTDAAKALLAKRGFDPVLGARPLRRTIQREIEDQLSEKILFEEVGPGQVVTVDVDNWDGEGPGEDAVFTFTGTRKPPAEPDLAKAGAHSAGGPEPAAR
Procedure: (§1) Analysis of binding affinity to Mycobacterial ClpC1-NTD and FL by SPR. SPR binding assay was performed using a previously reported method (Choules et al., Antimicrob. Agents Chemother. 2019, 63, e02204-02218; Wolf et al., ACS Infect. Dis. 2019, 5, 829-840). Kinetic rate constants (ka and kd) were determined by fitting the double-reference data globally to the 1:1 Langmuir model embedded in the Biacore T200 evaluation software (v3.0). KD values were then calculated from the two rate constants (KD=kd/ka). Smaller KD values represent tighter binding affinities.

Mycobacterial ClpC1-NTD = biological target: T2, Mycobacterial ClpC1-NTD (Mycobacterium tuberculosis, UniProt P9WPC9); test: SPR binding affinity to ClpC1-NTD; conditions: SPR, ClpC1 N-terminal domain; Table 3, unit inferred; read-out: KD NTD
T2 construct: caseinolytic protein C1 (ClpC1) N-terminal domain (NTD)
T2 sequence (P9WPC9 2-144): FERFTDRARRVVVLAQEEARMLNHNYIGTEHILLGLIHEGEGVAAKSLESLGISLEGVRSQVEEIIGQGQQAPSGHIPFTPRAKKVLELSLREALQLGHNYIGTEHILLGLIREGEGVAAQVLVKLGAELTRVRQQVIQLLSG
Procedure: as §1

[3] = Interconversion (epimerization) of rufomycin diastereomers, HPLC analysis; format: physicochemical; conditions: HPLC analysis; hemi-aminal epimers
From the text: The rufomycins 32-35 were identified as four diastereomers, arising from different orientations of the hydroxyl and methyl groups in the hydroxy-methyl piperidinone moiety. Rufomycin 32 was assigned the (AA5, 4S,5R) absolute configuration based on the ROESY correlations, and further confirmed by the cocrystal structures of rufomycin 32 and ClpC1-NTD. Thus, rufomycin 32 is that congener previously identified as ilamycin, Compound 4, and ilamycin C1 (PCT/US2000/015044). […] The assigned 4S,5S (AA5) absolute configuration for rufomycin 33 was validated by the ROESY correlations. Rufomycin 34 with the absolute configuration 4R,5R (AA5) was established by the ROESY cross-peaks. […] After being purified by semi-prep HPLC, rufomycin 35 was concentrated under a stream of forced air and freeze drying to reduce interconversion.

M. tuberculosis = test: MIC against M. tuberculosis, microplate Alamar Blue assay (MABA); format: cell-based, Mycobacterium tuberculosis; design: MIC90: unit not given beside the values
Procedure: MICs against M. tuberculosis. The MIC was defined as the minimum concentration of the compound required to achieve a reduction in fluorescence by 90% relative to the untreated bacterial controls. The anti-TB activity was determined by the microplate Alamar Blue assay (MABA) as previously described (Choules et al., Antimicrob. Agents Chemother. 2019, 63, e02204-02218).

caseinolytic protein C1 (ClpC1) N-terminal domain (NTD) (Mycobacterial (Mycobacterium tuberculosis by context)), sequence (P9WPC9 1-145 limits assumed): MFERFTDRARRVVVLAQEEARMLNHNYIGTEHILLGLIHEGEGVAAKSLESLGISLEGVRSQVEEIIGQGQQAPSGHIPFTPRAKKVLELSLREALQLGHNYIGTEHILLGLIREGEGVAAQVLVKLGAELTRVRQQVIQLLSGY
caseinolytic protein C1 (ClpC1) full-length protein (FL) (Mycobacterial (Mycobacterium tuberculosis by context)), sequence (P9WPC9 whole entry): as the sequence (P9WPC9 whole entry, the tested form may be a part) above

## rufomycins 1 and 2 mixture (peptide)
[1]
  Kd: 70 nM
[2]
  Kd: 70 nM

## C/C=C/C[C@@H]1NC(=O)[C@H](CC(C)C)N2C(=O)[C@H](C[C@H](C)[C@@H]2O)N(C)C(=O)[C@H](C)NC(=O)[C@H](Cc2ccc(O)c([N+](=O)[O-])c2)NC(=O)[C@H](CC(C)C)N(C)C(=O)[C@H](Cc2cn(C(C)(C)[C@H]3CO3)c3ccccc23)NC1=O [rufomycin 33]
Mycobacterial ClpC1 FL
  Kd: 27 nM
Mycobacterial ClpC1-NTD
  Kd: 29 nM
[3]
  interconversion / stability of diastereomers (in words): interconvertible
M. tuberculosis; MABA, Table 3, unit not given
  MIC90: 12
M. tuberculosis; MIC data of Table 3
  anti-M.tb potency relative to rifampin and isoniazid (in words): higher potency than drugs rifampin and isoniazid
